Article PMC6155683, “Pharmacokinetics Studies of 12 Alkaloids in Rat Plasma after Oral Administration of Zuojin and Fan-Zuojin Formulas” (Molecules : A Journal of Synthetic Chemistry and Natural …, 2017)
Like-named read-outs stand apart in the source and are kept apart here.

Tests used:
[1] = PK study of the 12 alkaloids in rat plasma after oral administration of ZJ and FZJ extract (LC–MS/MS); format: in vivo
Description: The time schedule included 15 time-points and six rats were sampled at each time-point. All the rats were orally administered with ZJ extract (suspended in water) at a dose of 3.38 g/kg body weight (dosages of the 12 alkaloids were shown in Table S4), equivalent to crude drug dose of 12 g/kg body weight. Blood samples were collected from the suborbital vein of the rats at 10, 20, 30, 60, 90, 120, 180, 240, 300, 330, 360, 480, 720, 1440, 2160 min after administration, and centrifuged immediately at 5000 rpm for 10 min. The plasma samples were stored at −20 °C until analysis.
Similarly, the time schedule of other rats included 15 time-points and six rats were orally administered with FZJ extract at a dose of 3.76 g/kg body weight (also equivalent to crude drug dose of 12 g/kg body weight, Table S4). Blood samples were collected and treated as mentioned above in the PK study of ZJ extract.
PK parameters of the 12 alkaloids including AUC0→t, AUC0→∞, mean retention time (MRT0→t, MRT0→∞), and elimination half-life (t1/2) were calculated with non-compartmental method by DAS 2.0 software (Mathematical Pharmacology Professional Committee of China, Shanghai, China). Maximum plasma drug concentration (Cmax) and time to reach the maximum plasma drug concentration (Tmax) were observed directly from the detected C–T data. The results were expressed as arithmetic mean ± standard deviation (SD).

P-gp = conditions: cited from earlier work
[2] = Stability of analytes in rat plasma under storage conditions; format: physicochemical; conditions: n = 6; for Stability RE, 3 freeze-thaw cycles / Stability RE, 30 days at −20 °C: rat plasma; for Stability RE, processed samples' stability: room temperature 24 h
Description: The stabilities of analytes in plasma were assessed by analyzing the QC samples at three concentration levels under the following storage conditions: after three freeze (−20 °C)-thaw (room temperature) cycles; stored at −20 °C for 30 days, and comparing the results with those of freshly prepared QC samples. Stabilities of the processed samples at room temperature for 24 h were also assessed.

[3] = jejunum vs ileum and colon; cited from earlier work
[4] = Two-compartment model fitting of C–T curves (DAS 2.0); format: in vivo, rat
Text: Double peaks in C–T curves were observed repeatedly in the PK study of ZJ and related TCM prescriptions, but explanations to the phenomenon were still ambiguous. Generally, possible reasons for the double peak phenomenon could be summarized as follows: (a) enterohepatic circulation; […] (c) irregular pattern of gastric emptying. […] Moreover, Tmax of the alkaloids after administration of ZJ extract were deferred from that of FZJ administration. […] It probably play a major role in the double peak phenomenon, since the GI motility can affect the drug absorption.

[5] = Dose modified systemic exposure (AUC0→∞/D, Cmax/D)
Description: Because the alkaloids content in ZJ and FZJ were no longer linear with the proportion of CR and EF after extraction process, AUC0→∞/D (ratio of AUC0→∞ and dose) and Cmax/D (ratio of Cmax and dose) were calculated to estimate the dose modified systemic exposure levels of the 12 alkaloids (Table 3). […] Physicochemical properties of these alkaloids had been calculated in silico to predict their human colon adenocarcinoma cell (Caco-2) permeability according to the three-property based rule (3PRule). Polar surface area (PSA), logarithm of the n-octanol/water distribution coefficient (LogD), molecular weight (MW), hydrogen bond donors (HBD), hydrogen bond acceptors (HBA), number of free rotatable bonds (NRB) and molar solubility (S) of the alkaloids were retrieved from SciFinder® (American Chemical Society).

For `c1c2c(cc3c1OCO3)-c1cc3ccc4c(c3c[n+]1CC2)OCO4` [coptisine], the “Tsec (time of the secondary peak in C–T curve)” value ([1]; rat plasma, oral ZJ extract) was 90 min, the “Csec (drug concentration of the secondary peak in C–T curve)” value ([1]; rat, in vivo, po) was 4.96 ± 2.29 ng/mL and the AUC(0-inf) ([1]; rat, in vivo, po, 3.38 g/kg) was 71.6 ± 10.7 ng·h/mL. The AUC(0-t) ([1]; rat, in vivo, po, 3.38 g/kg) was 68.7 ± 10.8 ng·h/mL, the Cmax ([1]; rat, in vivo, po, 3.38 g/kg) was 14.1 ± 7.75 ng/mL and the MRT inf ([1]; rat, in vivo, po, 3.38 g/kg) was 12.3 h. For the same compound, the MRT last ([1]; rat, in vivo, po, 3.38 g/kg) was 10.7 h, the Tmax ([1]; rat, in vivo, po, 3.38 g/kg) was 5 h and the half-life ([1]; rat, in vivo, po, 3.38 g/kg) was 8.01 ± 1.92 h. The AUC(0-inf) ([1]; rat, in vivo, po, 3.76 g/kg) was 11.8 ± 1.25 ng·h/mL, the AUC(0-t) ([1]; rat, in vivo, po, 3.76 g/kg) was 11 ± 1.64 ng·h/mL and the Cmax ([1]; rat, in vivo, po, 3.76 g/kg) was 4.78 ± 2.31 ng/mL. The MRT inf ([1]; rat, in vivo, po, 3.76 g/kg) was 5.2 h, the MRT last ([1]; rat, in vivo, po, 3.76 g/kg) was 4.18 h and the Tmax ([1]; rat, in vivo, po, 3.76 g/kg) was 3 h. For the same compound, the half-life ([1]; rat, in vivo, po, 3.76 g/kg) was 2.93 ± 1.22 h, the P-gp substrate (P-gp) was “P-gp substrates” and the “Stability RE, 3 freeze-thaw cycles” value ([2]; high QC concentration) was 0.97%. The “Stability RE, 30 days at −20 °C” value ([2]; high QC concentration) was 0.65%, the “Stability RE, 3 freeze-thaw cycles” value ([2]; low QC concentration) was 6.92% and the “Stability RE, 30 days at −20 °C” value ([2]; low QC concentration) was −11.58%. The “Stability RE, 3 freeze-thaw cycles” value ([2]; medium QC concentration) was 5.77%, the “Stability RE, 30 days at −20 °C” value ([2]; medium QC concentration) was −8.99% and the “Stability RE, processed samples' stability” value ([2]; high QC concentration) was −8.19%. The “Stability RE, processed samples' stability” value ([2]; low QC concentration) was −10.47%, the “Stability RE, processed samples' stability” value ([2]; medium QC concentration) was −2.14% and the “absorption rate constant (Ka) compared between intestinal sites” value [3] was “better absorption rate at colon compared with jejunum”.

For `Cn1c(=O)n(CCC2(O)C(=O)Nc3ccccc32)c(=O)c2ccccc21` (stereo not shown) [wuchuyuamide-I], the AUC(0-t) ([1]; 3.38 g/kg, rat plasma, oral ZJ extract, mean ± SD, n = 6, read-out: AUC0→t) was 11.5 ± 1.4 ng·h/mL, the AUC(0-inf) ([1]; 3.38 g/kg, rat plasma, oral ZJ extract, mean ± SD, n = 6, read-out: AUC0→∞) was 12.8 ± 1.43 ng·h/mL and the Cmax ([1]; 3.38 g/kg, rat plasma, oral ZJ extract, mean ± SD, n = 6, read-out: Cmax) was 3.45 ± 1.73 ng/mL. It also gave an MRT last ([1]; 3.38 g/kg, rat plasma, oral ZJ extract, mean ± SD, n = 6, read-out: MRT0→t (converted)) of 3.86 h, an MRT inf ([1]; 3.38 g/kg, rat plasma, oral ZJ extract, mean ± SD, n = 6, read-out: MRT0→∞ (converted)) of 5.22 h and a half-life ([1]; 3.38 g/kg, rat plasma, oral ZJ extract, mean ± SD, n = 6, read-out: t1/2) of 3.64 ± 1.5 h. For the same compound, the Tmax ([1]; 3.38 g/kg, rat plasma, oral ZJ extract, read-out: Tmax (converted)) was 1.5 h, the AUC(0-t) ([1]; 3.76 g/kg, rat plasma, oral FZJ extract, mean ± SD, n = 6, read-out: AUC0→t) was 48.2 ± 8.86 ng·h/mL and the AUC(0-inf) ([1]; 3.76 g/kg, rat plasma, oral FZJ extract, mean ± SD, n = 6, read-out: AUC0→∞) was 50.1 ± 8.81 ng·h/mL. It also gave a Cmax ([1]; 3.76 g/kg, rat plasma, oral FZJ extract, mean ± SD, n = 6, read-out: Cmax) of 10.7 ± 4.43 ng/mL, an MRT last ([1]; 3.76 g/kg, rat plasma, oral FZJ extract, mean ± SD, n = 6, read-out: MRT0→t (converted)) of 5.77 h and an MRT inf ([1]; 3.76 g/kg, rat plasma, oral FZJ extract, mean ± SD, n = 6, read-out: MRT0→∞ (converted)) of 6.89 h. The half-life ([1]; 3.76 g/kg, rat plasma, oral FZJ extract, mean ± SD, n = 6, read-out: t1/2) was 4.92 ± 1.83 h, the Tmax ([1]; 3.76 g/kg, rat plasma, oral FZJ extract, read-out: Tmax (converted)) was 0.5 h and the “Tsec (time of the secondary peak in C–T curve)” value ([1]; rat plasma, oral ZJ extract) was 20 min. The “Csec (drug concentration of the secondary peak in C–T curve)” value ([1]; rat plasma, oral ZJ extract, mean ± SD, n = 6) was 2.55 ± 0.38 ng/mL, the “Stability RE, 3 freeze-thaw cycles” value ([2]; high QC concentration) was 0.37% and the “Stability RE, 30 days at −20 °C” value ([2]; high QC concentration) was −1.38%. For the same compound, the “Stability RE, 3 freeze-thaw cycles” value ([2]; low QC concentration) was 18.91%, the “Stability RE, 30 days at −20 °C” value ([2]; low QC concentration) was 14.46% and the “Stability RE, 3 freeze-thaw cycles” value ([2]; medium QC concentration) was −14.69%. The “Stability RE, 30 days at −20 °C” value ([2]; medium QC concentration) was −10.79%, the “Stability RE, processed samples' stability” value ([2]; high QC concentration) was −10.58% and the “Stability RE, processed samples' stability” value ([2]; low QC concentration) was 15.1%. The “Stability RE, processed samples' stability” value ([2]; medium QC concentration) was −14.07%, the “AIC (Akaike's information criterion method), two-compartment model fitting” value ([4]; oral FZJ extract) was 66.844 ± 7.076 and the “r^2 (correlation coefficient method), two-compartment model fitting” value ([4]; oral FZJ extract) was 0.519 ± 0.407. For the same compound, the “AIC (Akaike's information criterion method), two-compartment model fitting” value ([4]; oral ZJ extract) was 35.057 ± 11.851, the “r^2 (correlation coefficient method), two-compartment model fitting” value ([4]; oral ZJ extract) was 0.544 ± 0.140 and the “AUC0→∞/D (ratio of AUC0→∞ and dose)” value ([5]; oral FZJ extract) was 278.39. The “Cmax/D (ratio of Cmax and dose)” value ([5]; oral FZJ extract) was 59.61, the “AUC0→∞/D (ratio of AUC0→∞ and dose)” value ([5]; oral ZJ extract) was 172.57 and the “Cmax/D (ratio of Cmax and dose)” value ([5]; oral ZJ extract) was 46.62.

`COc1cc2c(cc1OC)-c1cc3ccc(OC)c(OC)c3c[n+]1CC2` [palmatine] gave an AUC(0-inf) ([1]; rat, in vivo, po, 3.38 g/kg) of 96.6 ± 33.2 ng·h/mL, an AUC(0-t) ([1]; rat, in vivo, po, 3.38 g/kg) of 88.3 ± 24.9 ng·h/mL and a Cmax ([1]; rat, in vivo, po, 3.38 g/kg) of 34.1 ± 19.2 ng/mL. For the same compound, the MRT inf ([1]; rat, in vivo, po, 3.38 g/kg) was 8.75 h, the MRT last ([1]; rat, in vivo, po, 3.38 g/kg) was 6.74 h and the Tmax ([1]; rat, in vivo, po, 3.38 g/kg) was 1.5 h. For the same compound, the half-life ([1]; rat, in vivo, po, 3.38 g/kg) was 5.65 ± 2.41 h, the AUC(0-inf) ([1]; rat, in vivo, po, 3.76 g/kg) was 18.9 ± 5.5 ng·h/mL and the AUC(0-t) ([1]; rat, in vivo, po, 3.76 g/kg) was 18.2 ± 4.98 ng·h/mL. The Cmax ([1]; rat, in vivo, po, 3.76 g/kg) was 9.74 ± 3.53 ng/mL, the MRT inf ([1]; rat, in vivo, po, 3.76 g/kg) was 4.49 h and the MRT last ([1]; rat, in vivo, po, 3.76 g/kg) was 3.86 h. The Tmax ([1]; rat, in vivo, po, 3.76 g/kg) was 3 h, the half-life ([1]; rat, in vivo, po, 3.76 g/kg) was 2.51 ± 1.73 h and the P-gp substrate (P-gp; not told) was “P-gp substrates”. The “Stability RE, 3 freeze-thaw cycles” value ([2]; high QC concentration) was −12.89%, the “Stability RE, 30 days at −20 °C” value ([2]; high QC concentration) was −12.35% and the “Stability RE, 3 freeze-thaw cycles” value ([2]; low QC concentration) was −14.23%. For the same compound, the “Stability RE, 30 days at −20 °C” value ([2]; low QC concentration) was −17.74%, the “Stability RE, 3 freeze-thaw cycles” value ([2]; medium QC concentration) was −7.2% and the “Stability RE, 30 days at −20 °C” value ([2]; medium QC concentration) was −13.85%. For the same compound, the “Stability RE, processed samples' stability” value ([2]; high QC concentration) was −12.47%, the “Stability RE, processed samples' stability” value ([2]; low QC concentration) was −9.27% and the “Stability RE, processed samples' stability” value ([2]; medium QC concentration) was −2.85%. The “absorption rate constant (Ka) compared between intestinal sites” value [3] was “greater than that at ileum and colon”.
